Experimental data reported in patent publication US20060281789A1, “Protein kinase inhibitors” (KYOWA HAKKO KOGYO CO., LTD, priority 2003, published 2006).
Structures can show the parent of a compound that is named as a salt.

Legend:
MV-4-11 = assay: Cytostatic activity on human acute myeloid leukemia cell line MV-4-11 (WST-1); assay type: cell-based; settings: MV4-11, 3.16 μmol/L, 72 hours, read-out: MV-4-11 (%) cytostatic rate
Experimental: (§1) The cytostatic rates of a test compound on human acute myeloid leukemia cell lines MV-4-11 and ML-1, and human chronic myeloid leukemia cell line K562 were determined in the following manner.
(§2) Each cell was cultured using Roswell Park Memorial Institute's Medium (RPMI) 1640 (Gibco, Catalog No. 11875-093) containing 10% fetal bovine serum (Gibco, Catalogue No. 10437-028) and penicillin/streptomycin (1:1) (Gibco, Catalogue No. 15140-122). Each 80 μL of the MV-4-11 cell having a concentration of 7.5×10^4 cells/mL (or the ML-1 cell or K562 cell having a concentration of 2.5×10^4 cells/mL) was inoculated to wells of a TC MICROWELL 96U plate (Nalge Nunc International, Catalogue No. 163320) and was cultured in a 5% carbon dioxide gas incubator at 37° C. for 4 hours. As a blank, only RPMI medium (80 μL) was added to a well. Each 20 μL of a solution of the test compound in dimethyl sulfoxide (DMSO) which was prepared to make the final concentration to 3.16 μmol/L or 10 μmol/L, was added to the MV-4-11 cell, ML-1 cell and K562 cell, respectively. Each 20 μL of DMSO was added to the control well and the blank well to a final concentration of 0.1%. After adding the test compound, the cells were incubated in a 5% carbon dioxide gas incubator at 37° C. for 72 hours. After adding 20 μL of WST-1 reagent {4-[3-(4-iodophenyl)-2-(4-nitrophenyl)-2H-5-tetrazolio]-1,3-benzene disulfonate sodium salt) (Roche Diagnostics K.K., Catalogue No. 1644807) diluted to 50% with RPMI medium, the cells were further incubated at 37° C. for 2 hours. Then, the absorbances at 450 nm (reference wavelength: 690 nm) were determined with a microplate spectrophotometer SPECTRA max 340PC (Molecular Devices Corporation). The relative growth (%) of a well to which the test compound had been added was determined while setting the absorbance of a well to which not the test compound but DMSO alone had been added (control) at 100% and that of a well containing RPMI medium alone at 0%. The cytostatic rate (%) of the test compound was determined by subtracting the calculated relative growth from 100.

ML-1 = assay: Cytostatic activity on human acute myeloid leukemia cell line ML-1 (WST-1); assay type: cell-based; settings: ML1, 3.16 μmol/L, 72 hours, read-out: ML-1 (%) cytostatic rate
Experimental: as §1, §2

K562 = assay: Cytostatic activity on human chronic myeloid leukemia cell line K562 (WST-1); assay type: cell-based; settings: 10 μmol/L, 72 hours, read-out: K562 (%) cytostatic rate
Experimental: as §1, §2

Colo205 = assay: Cytostatic activity on human colon cancer cell line Colo205 (WST-1); assay type: cell-based; settings: 10 μmol/L, 72 hours
Experimental: The cytostatic rate of a test compound on the human colon cancer cell line Colo205 was determined in the following manner.
The cell was cultured using Roswell Park Memorial Institute's-Medium (RPMI) 1640 (Gibco, Catalog No. 11875-093) containing 10% fetal bovine serum (Gibco, Catalog-No. 10437-028) and penicillin/streptomycin (1:1) (Gibco, Catalog No. 15140-122). Each 80 μL of the Colo205 having a concentration of 1.25×10^4 cells/mL was inoculated to wells of a TC MICROWELL 96F plate (Nalge Nunc International, Catalog No. 167008) and was cultured in a 5% carbon dioxide gas incubator at 37° C. for 4 hours. As a blank, only RPMI (80 μL) was added to a well. Each 20 μL of a solution of the test compound in DMSO which was prepared to make the final concentration to 10 μmol/L, was added to the Colo205 cell. Each 20 μL of DMSO was added to the control well and the blank well to a final concentration of 0.1%. After adding the test compound, the cell was incubated in a 5% carbon dioxide gas incubator at 37° C. for 72 hours. The cytostatic rate (%) was then determined in the same manner as the method or the leukemia cell lines described above.

human Flt-3 = biological target: T1, human Flt-3 (Homo sapiens, UniProt P36888); assay: Inhibitory activity on Flt-3 (GST-fused kinase, time-resolved fluoroimmunoassay); assay type: biochemical; settings: tested compound 10 μmol/L, ATP 10 μmol/L, sixty minutes
T1 construct: fused to the N-terminus of the intracellular domain (583-953 amino acids) thereof; made in house; host or cells: insect cells (baculovirus)
T1 sequence (P36888 583-953): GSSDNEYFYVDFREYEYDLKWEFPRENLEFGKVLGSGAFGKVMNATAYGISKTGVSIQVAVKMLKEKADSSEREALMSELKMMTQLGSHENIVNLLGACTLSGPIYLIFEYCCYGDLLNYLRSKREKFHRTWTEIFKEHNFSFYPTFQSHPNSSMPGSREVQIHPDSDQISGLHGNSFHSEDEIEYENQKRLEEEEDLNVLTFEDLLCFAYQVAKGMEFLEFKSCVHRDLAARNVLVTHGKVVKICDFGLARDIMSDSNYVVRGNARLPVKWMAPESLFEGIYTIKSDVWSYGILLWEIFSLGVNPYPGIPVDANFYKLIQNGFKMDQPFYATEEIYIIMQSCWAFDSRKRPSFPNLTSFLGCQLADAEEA
Experimental: Flt-3 inhibitory activities were determined in the following manner.
Flt-3 was prepared by allowing baculovirus to infect insect cells, which baculovirus expresses a protein comprising human Flt-3 with […]. […] Separately was prepared a solution containing, at final concentrations, GST-fused Flt-3 (100 μg/L), Tris-Cl (pH 7.5) (20 mmol/L), β-glycerophosphate (5 mmol/L), dithiothreitol (DTT) (1 mmol/L), Na3VO4 (0.1 mmol/L), MgCl2 (10 mmol/L), MnCl2 (10 mmol/L), ATP (10 μmol/L), bovine serum albumin (BSA) (0.1%), DMSO (0.1%), and a tested compound (10 μmol/L). The solution (each 60 μL) was placed into the wells of the plate for the determination of kinase reaction, followed by enzymatic reaction at room temperature for sixty minutes. After reacting, the reaction was stopped by the addition of 50 μL of a 25 mmol/L aqueous solution of ethylenediaminetetraacetic acid. […] The relative activity (%) of a well in which the enzyme and tested compound were added was determined by calculation with the value in a well to which the tested compound was not added being 100% and the value in a well to which the enzyme and the tested compound were not added being 0%. The Flt-3 inhibitory activity (%) of the tested compound was determined by subtracting the relative activity (%) from 100.

C(=C\c1n[nH]c2ccccc12)/c1ccc(OCCN2CCOCC2)cc1 [Compound 5, (E)-3-{2-[4-(2-morpholinoethoxy)phenyl]vinyl}-1H-indazole hydrochloride]
inhibition at 3.16 µM (MV-4-11): 91% | inhibition at 3.16 µM (ML-1): 16% | inhibition at 10 µM (K562): 81% | Colo205(%) cytostatic rate (Colo205): 90% | inhibition at 10 µM (human Flt-3): 93.3%

CN(C)CCCOc1ccc(/C=C/c2n[nH]c3ccccc23)cc1 [Compound 10, (E)-3-{2-[4-(3-dimethylaminopropoxy)phenyl]vinyl}-1H-indazole hydrochloride]
inhibition at 3.16 µM (MV-4-11): 97% | inhibition at 3.16 µM (ML-1): 92% | inhibition at 10 µM (K562): 95%

CN(C)CCOc1cccc(/C=C/c2n[nH]c3ccccc23)c1 [Compound 18, (E)-3-{2-[3-(2-dimethylaminoethoxy)phenyl]vinyl}-1H-indazole hydrochloride]
inhibition at 3.16 µM (MV-4-11): 95% | inhibition at 3.16 µM (ML-1): 4.1% | inhibition at 10 µM (K562): 59%

C(=C\c1n[nH]c2ccccc12)/c1cccnc1 [Compound 21, (E)-3-[2-(3-pyridyl)vinyl]-1H-indazole]
inhibition at 3.16 µM (MV-4-11): 79% | inhibition at 3.16 µM (ML-1): 25% | inhibition at 10 µM (K562): 41%

COc1ccc(/C=C/c2n[nH]c3ccccc23)cn1 [Compound 22, (E)-3-[2-(6-methoxypyridin-3-yl)vinyl]-1H-indazole]
inhibition at 3.16 µM (MV-4-11): 82% | inhibition at 3.16 µM (ML-1): 9.2% | inhibition at 10 µM (K562): 63%

COc1cc(/C=C/c2n[nH]c3ccccc23)ccc1OCC(=O)N1CCOCC1 [Compound 40, (E)-N-{4-[2-(1H-indazol-3-yl)vinyl]-2-methoxyphenoxy}acetylmorpholine]
inhibition at 3.16 µM (MV-4-11): 95% | inhibition at 3.16 µM (ML-1): 95% | inhibition at 10 µM (K562): 60% | Colo205(%) cytostatic rate (Colo205): 93% | inhibition at 10 µM (human Flt-3): 93.8%

N#Cc1cc(/C=C/c2n[nH]c3ccccc23)ccc1OCCN1CCOCC1 [Compound 47, (E)-3-{2-[3-cyano-4-(2-morpholinoethoxy)phenyl]vinyl}-1H-indazole]
inhibition at 3.16 µM (MV-4-11): 98% | inhibition at 3.16 µM (ML-1): 89% | inhibition at 10 µM (K562): 75% | Colo205(%) cytostatic rate (Colo205): 68% | inhibition at 10 µM (human Flt-3): 94.5%

C(=C\c1n[nH]c2ccccc12)/c1ccc(N2CCNCC2)cc1.Cl [Compound 53, (E)-3-{2-[4-(piperazin-1-yl)phenyl]vinyl}-1H-indazole hydrochloride]
inhibition at 3.16 µM (MV-4-11): 97% | inhibition at 3.16 µM (ML-1): 80% | inhibition at 10 µM (K562): 87% | Colo205(%) cytostatic rate (Colo205): 90% | inhibition at 10 µM (human Flt-3): 95.2%

CC(=O)N1CCN(c2ccc(/C=C/c3n[nH]c4ccccc34)cc2)CC1 [Compound 54, (E)-3-(2-[4-(4-acetylpiperazin-1-yl)phenyl]vinyl}-1H-indazole]
inhibition at 3.16 µM (MV-4-11): 98% | inhibition at 3.16 µM (ML-1): 89% | inhibition at 10 µM (K562): 59% | Colo205(%) cytostatic rate (Colo205): 78% | inhibition at 10 µM (human Flt-3): 94%

CC(=O)N1CCN(c2ccc(/C=C/c3n[nH]c4ccccc34)cc2N)CC1 [Compound 58, (E)-3-{2-[4-(4-acetylpiperazin-1-yl)-3-aminophenyl]vinyl}-1H-indazole]
inhibition at 3.16 µM (MV-4-11): 97% | inhibition at 3.16 µM (ML-1): 90% | inhibition at 10 µM (K562): 61% | Colo205(%) cytostatic rate (Colo205): 91%

Nc1cc(/C=C/c2n[nH]c3ccccc23)ccc1N1CCNCC1 [Compound 59, (E)-3-{2-[3-amino-4-(piperazin-1-yl)phenyl]vinyl}-1H-indazole]
inhibition at 3.16 µM (MV-4-11): 98% | inhibition at 3.16 µM (ML-1): 86% | inhibition at 10 µM (K562): 84% | Colo205(%) cytostatic rate (Colo205): 89%
